Consider 12 compounds from patent US8669250B2, “Derivatives of aryl-{4-halogeno-4-[aminomethyl]-piperidin-1-yl}-methanone, their method of preparation and their use as medicinal products” (Pierre Fabre Medicament, priority 2009, dated 2014).

Series [1] concerns rats, oxaliplatine-induced allodynia. Nature of the series: Oxaliplatine test, von Frey (analgesic activity, pathological pain). It counts as in vivo. The note with it: rat, i.p., even at a dose of 2.5 mg/kg. From the text:
(§1) The physiological pain model chosen by the inventors to determine the analgesic activity of the compounds of the invention uses excess nociceptive stimuli (injection of formol) to cause a painful sensation in animal (Eur. J. Pharmacol. 2001, 421, 109). For the so-called pathological pain model in animal, the inventors chose to use pain induced by the injection of a cytotoxic agent such as oxaliplatine (Eur. J. Cancer 2007, 2658).
The rats (Male Sprague Dawley rats (ICO: OFA SD [IOPS], Iffa Credo, France) are tested a first time on the Friday to determine their mechanical sensitivity threshold (von Frey test). They are then given an intra-peritoneal injection (i.p.) of oxaliplatine (anticancer treatment causing neuropathic pain in patients) at a dose of 8 mg/kg. This dose in rat induces neuropathy which translates as mechanical hypersensitivity (allodynia) which develops 3 days after the injection with a peak on day five. For the study of the compounds of the invention, the animals are re-tested on day five, 15 min after administration of the compound via intra-peritoneal route.
The pressure force is then measured (in g) at which withdrawal of the paw of the animals is observed.

Series [2] has as its system rats, forced swimming immobility. Nature of the series: Forced swimming test (antidepressant activity). The note with it: rat, oral, even at a dose of 40 mg/Kg. It counts as in vivo. The method, then:
(§2) The affinity of the compounds of the invention for the rat 5-HT1A receptor was measured conventionally from competitive experiments with a radiolabelled 5-HT1A agonist. […] This test is widely used since it is predictive of antidepressant action in man. Analgesic activity was determined after intra-peritoneal administration to rats, both with a physiological pain model and a pathological pain model. By physiological pain, the inventors designate pain whose origin is a lesion and/or organic ill-function such as pain caused by excessive nociceptive stimuli.
The rats (Male Sprague Dawley rats (ICO: OFA SD [IOPS], Iffa Credo, France), are placed in a cylinder (45 cm high and 20 cm in diameter) filled with water at 25° C.±0.5 up to a height of 17 cm. This depth allows rats to swim or float without their tail touching the bottom of the cylinder.
24 h before the test day, the rats are placed in the cylinder for 15 min, a lapse of time after which they no longer attempt to escape and remain immobile. On the test day the animals are replaced in the cylinder and the duration of animal immobility is measured by direct observation followed by verification of an audiovisual recording for 5 min. The products of the invention are administered by oral route 60 min before the test. A rat is considered to be immobile if it allows itself to float and only makes small movements to remain on the surface. Two rats are observed at the same time.
(§3) Quantification of the effect of the compounds of the invention on the forced swimming tests and on the formol test is conducted by one-factor variance analysis between groups (ANOVA analysis) followed by a multiple comparison test (Dunnett's test) versus control animals. The ED50 value is calculated using Litchfield and Wilcoxon analysis from the percentage of responding animals.

Series [3] has as its system rats, formol-induced pain. Description: Formol test (analgesic activity, physiological pain). It counts as in vivo. The note with it: rat, i.p.
Text: as §1
The rats (Male Sprague Dawley rats (ICO: OFA SD [IOPS], Iffa Credo, France) are placed in plexiglass observation boxes above an angled mirror so as to facilitate observation of the hind paws. After thirty minutes of habituation, the animals are given an injection of formol diluted to 2.5% on the plantar surface of the right hind paw. The injection of formol produces behavioural responses which occur in two phases:
an acute phase, from 0 to 5 min after injection of the formol, corresponding to stimulation of receptors specialized in the transmission of pain messages to the spinal cord.
a late phase which occurs 20 to 30 min after the injection. This phase corresponds to stimulation of receptors by inflammatory mediators and/or to hyper-excitability of the dorsal horn induced during the first phase. This late phase therefore involves central sensitization.
For the study of the compounds of the invention we selected two expressions of painful behaviour and chose two periods of observation which correspond to the two pain phases (i.e. 0-5 min and 22.5-27.5 min). During these two 5-min periods the animals are observed every 30 seconds and are given scores for the following behaviours: paw licking or not of the injected paw, and lifting or non-lifting of the injected paw. Ten observations give a maximum score of 10 for each parameter for each of the 2 phases. The products of the invention are administered via intraperitoneal route 15 min before the injection of formol.
as §3
For this test, the animals are observed every 30 seconds during two periods of 5 min. The following behaviours are noted: paw licking or not of the injected paw, and paw lifting or not of the injected paw. Ten observations give a maximum score of 10 for each parameter for each of the 2 phases, measuring either paw lifting or paw licking. This test was also performed by comparison with administration of the vehicle (veh) alone.

A further series has as its target T1, 5-HT1A receptor (Rattus norvegicus, UniProt P19327).
T1 construct: the cerebral cortex is sampled and homogenized in 20 volumes of buffer; from tissue; host or cells: rat cerebral cortex homogenate (membranes)
T1 sequence (P19327 1-422): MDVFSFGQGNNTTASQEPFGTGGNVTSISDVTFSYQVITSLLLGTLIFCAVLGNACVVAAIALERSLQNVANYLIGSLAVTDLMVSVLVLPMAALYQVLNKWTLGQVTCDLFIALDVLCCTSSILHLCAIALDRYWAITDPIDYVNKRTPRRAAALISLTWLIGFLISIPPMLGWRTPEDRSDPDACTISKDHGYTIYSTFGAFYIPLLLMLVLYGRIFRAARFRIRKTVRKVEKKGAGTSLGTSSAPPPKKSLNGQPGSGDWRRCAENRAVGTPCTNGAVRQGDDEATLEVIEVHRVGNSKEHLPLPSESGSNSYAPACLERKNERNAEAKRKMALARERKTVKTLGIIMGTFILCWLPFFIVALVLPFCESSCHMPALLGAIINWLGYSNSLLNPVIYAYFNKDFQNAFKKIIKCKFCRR
Description: Affinity for 5-HT1A receptors, shift of (3H)8-OH-DPAT in rat cerebral cortex. It counts as binding. The note with it: mean of at least 3 experiments, read-out: 5-HT1A affinity (pKi) (converted). The method, then: as §2
The in vitro affinity of the compounds of the invention for the 5-HT1A receptors was determined by measuring the shift of (^3H)8-OH-DPAT (agonist of 5HT1A receptors labelled with tritium, TRK 850; 160-240 Ci/mmole).
The study on binding with the 5-HT1A receptor was conducted as described in Naunyn-Schmiedeberg's Arch. Pharmaco. 1991, 343, 106. For these experiments, rat cerebral cortices were used. After unfreezing the brain in Tris-HCl buffer 50 mmol, pH=7.40 at 25° C., the cerebral cortex is sampled and homogenized in 20 volumes of buffer held at 4° C. The homogenate is centrifuged at 39000 g for 10 min, the centrifuge residue is suspended in the same volume of buffer and again centrifuged. After further suspension under the same conditions, the homogenate is incubated for 10 min at 37° C. then again centrifuged. The final residue is suspended in cold reaction buffer Tris-HCl 50 mmol, pH=7.40 at 25° C. containing […] of pargyline, 4 mmol of CaCl2 and 0.10% ascorbic acid. The final concentration of the tissue in the incubation medium is 10 mg/tube.
The reaction tubes contain 0.10 mL of (^3H)8-OH-DPAT (final […]), 0.10 mL of product to be tested 6-7 concentrations and 0.80 mL of tissue. Non-specific binding is defined using […] of 5-HT. The reaction tubes are incubated at 23° C. for 30 min then their content is rapidly vacuum filtered through Whatman GF/B filters, the tubes are rinsed with 2×5 mL of Tris-HCl buffer 50 mmol, pH=7.4 at 25° C. Radioactivity is collected on the filter and analyzed by liquid scintillation by adding 4 mL of scintillating liquid (Emulsifier Safe, Packard). All experiments were performed in triplicate.
The inhibition constants (Ki) of the products of the invention are estimated from shift experiments using the non-linear regression programme RADLIG version 4 by EBDA (Equilibrium Binding Data Analysis Biosoft, Cambridge, UK, Mc Pherson, 1985). The dissociation constant of the radioactive ligand used for calculations is […] for (^3H)8-OH-DPAT. The values of pKi (−log Ki) are given in the form mean±SEM of at least 3 experiments.

Molecules are shown by their SMILES. Where a name gives a salt, the structure may show the parent alone.

One may read the melting point as the temperature of the solid-liquid transition. For `O=C(c1ccc(F)c(Cl)c1)N1CCC(F)(CNCC2CNc3ccccc3O2)CC1` (stereo not drawn) (as salt: hydrochloride) [Compound 1a3, (3-Chloro-4-fluoro-phenyl)-{4-fluoro-4-[(3,4-dihydro-2H-1,4-benzoxazine-2-methanamino)-methyl]-piperidin-1-yl}-methanone], the melting point turned out to be 175 °C.

`O=C1CC2(CCCC2)CC(=O)N1CCCCN1CCN(c2ncccn2)CC1` [buspirone, reference compound]: the “analgesia, in words” value in series [1] is “does not produce any significant analgesia”. The “effect on animal immobility” value in series [2] is on record as “no effect on animal immobility”. Moreover, the “dose on and after which paw lifting is affected” value in series [3] (acute phase and late phase) is recorded as at least 2.5 mg/kg. In addition, the “dose on and after which paw licking is inhibited” value in series [3] (late phase) is listed as at least 2.5 mg/kg.

For `COc1cccc2c1OC(CNCC1(F)CCN(C(=O)c3ccc(F)c(Cl)c3)CC1)CN2` (stereo not drawn) [Compound 1e, (3-Chloro-4-fluoro-phenyl)-{4-fluoro-4-[(3,4-dihydro-2H-8-methoxy-1,4-benzoxazine-2-methanamino)-methyl]-piperidin-1-yl}-methanone], the Ki on 5-HT1A receptor was 1.51 nM.

Regarding `O=C(c1ccc(F)c(Cl)c1)N1CCC(F)(CNCC2CNc3ccccc3O2)CC1` (single isomer, unassigned; (-)) (as salt: fumarate) [Compound 1a1, (−)-(3-Chloro-4-fluoro-phenyl)-{4-fluoro-4-[(3,4-dihydro-2H-1,4-benzoxazine-2-methanamino)-methyl]-pipéridin-1-yl}-methanone], the melting point stood at 185 °C.

For `O=C(c1ccc(F)c(Cl)c1)N1CCC(F)(CNCC2CNc3cccc(F)c3O2)CC1` (stereo not drawn) [Compound 1b, (3-Chloro-4-fluoro-phenyl)-{4-fluoro-4-[(3,4-dihydro-2H-8-fluoro-1,4-benzoxazine-2-methanamino)-methyl]-piperidin-1-yl}-methanone], at 5-HT1A receptor, the Ki was 0.631 nM.

`O=C(c1ccc(F)c(Cl)c1)N1CCC(F)(CNCC2CNc3cccc(F)c3O2)CC1` (stereo not drawn) (as salt: fumarate) [Compound 1b, (3-Chloro-4-fluoro-phenyl)-{4-fluoro-4-[(3,4-dihydro-2H-8-fluoro-1,4-benzoxazine-2-methanamino)-methyl]-piperidin-1-yl}-methanone] yielded a melting point of 100 °C.

Turning to `N#Cc1cccc2c1OC(CNCC1(F)CCN(C(=O)c3ccc(F)c(Cl)c3)CC1)CN2` (stereo not drawn) [Compound 1f, (3-Chloro-4-fluoro-phenyl)-{4-fluoro-4-[(3,4-dihydro-2H-8-cyano-1,4-benzoxazine-2-methanamino)-methyl]-piperidin-1-yl}-methanone], the Ki at 5-HT1A receptor is 0.646 nM.

In the case of `Cc1cccc2c1OC(CNCC1(F)CCN(C(=O)c3ccc(F)c(Cl)c3)CC1)CN2` (stereo not drawn) [Compound 1c, (3-Chloro-4-fluoro-phenyl)-{4-fluoro-4-[(3,4-dihydro-2H-8-methyl-1,4-benzoxazine-2-methanamino)-methyl]-piperidin-1-yl}-methanone], the Ki on 5-HT1A receptor was 1.23 nM.

On to `O=C(c1ccc(F)c(Cl)c1)N1CCC(F)(CNCC2CNc3cccc(Cl)c3O2)CC1` (stereo not drawn) [Compound 1d, (3-Chloro-4-fluoro-phenyl)-{4-fluoro-4-[(3,4-dihydro-2H-8-chloro-1,4-benzoxazine-2-methanamino)-methyl]-piperidin-1-yl}-methanone], for which, at 5-HT1A receptor, the Ki is 2.29 nM.

With `CN1CC(CNCC2(F)CCN(C(=O)c3ccc(F)c(Cl)c3)CC2)Oc2ccccc21` (stereo not drawn) [Compound 1g, (3-Chloro-4-fluoro-phenyl)-{4-fluoro-4-[(3,4-dihydro-2H-4-methyl-1,4-benzoxazine-2-methanamino)-methyl]-piperidin-1-yl}-methanone], on 5-HT1A receptor, the Ki is 0.794 nM.

With `NC(=O)c1cccc2c1OC(CNCC1(F)CCN(C(=O)c3ccc(F)c(Cl)c3)CC1)CN2` (stereo not drawn) [Compound 1h, (3-Chloro-4-fluoro-phenyl)-{4-fluoro-4-[(3,4-dihydro-2H-8-carbamoyl-1,4-benzoxazine-2-methanamino)-methyl]-piperidin-1-yl}-methanone], the Ki on 5-HT1A receptor is 0.741 nM.

`CN1CC(CNCC2(F)CCN(C(=O)c3ccc(F)c(Cl)c3)CC2)Oc2ccccc21` (stereo not drawn) (as salt: fumarate) [Compound 1g, (3-Chloro-4-fluoro-phenyl)-{4-fluoro-4-[(3,4-dihydro-2H-4-methyl-1,4-benzoxazine-2-methanamino)-methyl]-piperidin-1-yl}-methanone] came in with a melting point of 125 °C.
